# Measurements: the supplement of paper PMC5752671
# Where a name gives a salt, the structure may show the parent alone.
# How the values were obtained:
# Test in all cases: IC50 (cell viability) (log10 M)
# Settings in all cases: 4 days
# [1] = system: MOLM/13
# Procedure, shortened: (§1)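 Fourteen leukemia cell lines were plated on extracellular-matrix-coated 384-well plates. Drugs were added robotically the next day at eight concentrations spanning 4–5 logs within 10^–12–10^–4 M, tailored per drug, in duplicate. Viability was read with CellTiter-Glo after 4 days. IC50 is the concentration where a fitted four-parameter curve crosses 50% viability, in log10 M; where that is not reached, the highest tested concentration is entered.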
# [2] = system: OCI-AML2
# Procedure, shortened: as §1
# [3] = system: KASUMI1
# Procedure, shortened: as §1
# [4] = system: NB4
# Procedure, shortened: as §1
# [5] = system: SKM1
# Procedure, shortened: as §1
# [6] = system: THP-1
# Procedure, shortened: as §1
# [7] = system: OCI-AML3
# Procedure, shortened: as §1
# [8] = system: MOLM/16
# Procedure, shortened: as §1
# [9] = system: PL-21
# Procedure, shortened: as §1
# [10] = system: KG1
# Procedure, shortened: as §1
smiles,measurement,setting,value
Cc1cc(C(=O)NOCCO)c(Nc2ccc(I)cc2F)n(C)c1=O [AZD8330],IC50 (log10 M),[1],-7.02
same,IC50 (log10 M),[2],< -8.34
same,IC50 (log10 M),[3],-8.22
same,IC50 (log10 M),[4],-8.3
same,IC50 (log10 M),[5],< -8.34
same,IC50 (log10 M),[6],> -5
same,IC50 (log10 M),[7],< -8.34
same,IC50 (log10 M),[8],> -5
same,IC50 (log10 M),[9],< -8.34
same,IC50 (log10 M),[10],< -8.34
CC(=O)O[C@H]1C(=O)[C@@]2(C)[C@H]([C@H](OC(=O)c3ccccc3)[C@]3(O)C[C@H](OC(=O)[C@H](O)[C@@H](NC(=O)c4ccccc4)c4ccccc4)C(C)=C1C3(C)C)[C@]1(OC(C)=O)CO[C@@H]1C[C@@H]2O [Paclitaxel],IC50 (log10 M),[1],< -8.48
same,IC50 (log10 M),[2],< -8.48
same,IC50 (log10 M),[3],< -8.48
same,IC50 (log10 M),[4],< -8.48
same,IC50 (log10 M),[5],< -8.48
same,IC50 (log10 M),[6],< -8.48
same,IC50 (log10 M),[7],< -8.48
same,IC50 (log10 M),[8],< -8.48
same,IC50 (log10 M),[9],< -8.48
same,IC50 (log10 M),[10],< -8.48
COc1ccc2c(c1)CCC1C2CCC2(C)C(NCCCCCCN3C(=O)C=CC3=O)CCC12 (stereo not given),IC50 (log10 M),[1],> -5
same,IC50 (log10 M),[2],> -5
same,IC50 (log10 M),[3],-6.38
same,IC50 (log10 M),[4],> -5
same,IC50 (log10 M),[5],-5.73
same,IC50 (log10 M),[6],-5.71
same,IC50 (log10 M),[7],-5.91
same,IC50 (log10 M),[8],> -5
same,IC50 (log10 M),[9],-5.7
same,IC50 (log10 M),[10],-5.95
COc1ccc(-c2ccc3ncc4c(c3c2)n(-c2ccc(N3CCNCC3)c(C(F)(F)F)c2)c(=O)n4C)cn1 [BGT-226],IC50 (log10 M),[1],-7.59
same,IC50 (log10 M),[2],-7.3
same,IC50 (log10 M),[3],-7.28
same,IC50 (log10 M),[4],-6.92
same,IC50 (log10 M),[5],-7.48
same,IC50 (log10 M),[6],-7
same,IC50 (log10 M),[7],-7.17
same,IC50 (log10 M),[8],-8.05
same,IC50 (log10 M),[9],-7.44
same,IC50 (log10 M),[10],-6.94
CN1CCN(CCOc2cc(OC3CCOCC3)c3c(Nc4c(Cl)ccc5c4OCO5)ncnc3c2)CC1 [AZD0530],IC50 (log10 M),[1],-5.23
same,IC50 (log10 M),[2],> -5
same,IC50 (log10 M),[3],> -5
same,IC50 (log10 M),[4],> -5
same,IC50 (log10 M),[5],> -5
same,IC50 (log10 M),[6],> -5
same,IC50 (log10 M),[7],> -5
same,IC50 (log10 M),[8],-5.32
same,IC50 (log10 M),[9],> -5
same,IC50 (log10 M),[10],> -5
CN1CCC(CNc2ccc3ncc(-c4cccc(OC(F)(F)F)c4)n3n2)CC1 [SGI-1776],IC50 (log10 M),[1],-7.51
same,IC50 (log10 M),[2],-5.49
same,IC50 (log10 M),[3],-5.68
same,IC50 (log10 M),[4],-5.46
same,IC50 (log10 M),[5],-5.55
same,IC50 (log10 M),[6],-5.4
same,IC50 (log10 M),[7],-5.47
same,IC50 (log10 M),[8],-6.4
same,IC50 (log10 M),[9],-5.52
same,IC50 (log10 M),[10],-5.53
COc1ccc(-c2cc3c(C)nc(N)nc3n([C@H]3CC[C@H](OCCO)CC3)c2=O)cn1,IC50 (log10 M),[1],-6.61
same,IC50 (log10 M),[2],-6.58
same,IC50 (log10 M),[3],-6.97
same,IC50 (log10 M),[4],-6.21
same,IC50 (log10 M),[5],-6.77
same,IC50 (log10 M),[6],-6.67
same,IC50 (log10 M),[7],-6.89
same,IC50 (log10 M),[8],-7.12
same,IC50 (log10 M),[9],-6.89
same,IC50 (log10 M),[10],-6.3
O=C(NC[C@H](O)CO)c1ccncc1Nc1ccc(I)cc1F,IC50 (log10 M),[1],-5.76
same,IC50 (log10 M),[2],< -8.48
same,IC50 (log10 M),[3],-7.59
same,IC50 (log10 M),[4],-7.41
same,IC50 (log10 M),[5],< -8.48
same,IC50 (log10 M),[6],-6.09
same,IC50 (log10 M),[7],< -8.48
same,IC50 (log10 M),[8],-6.62
same,IC50 (log10 M),[9],-7.99
same,IC50 (log10 M),[10],-7.51
Cc1[nH]c2ccccc2c1CCNCc1ccc(/C=C/C(=O)NO)cc1 [Panobinostat],IC50 (log10 M),[1],-8.24
same,IC50 (log10 M),[2],-8.5
same,IC50 (log10 M),[3],-8.48
same,IC50 (log10 M),[4],-8.35
same,IC50 (log10 M),[5],-8.46
same,IC50 (log10 M),[6],-8.44
same,IC50 (log10 M),[7],-8.2
same,IC50 (log10 M),[8],-8.71
same,IC50 (log10 M),[9],-8.44
same,IC50 (log10 M),[10],-8.44
O=c1c(N=Nc2ccc(S(=O)(=O)O)cc2)c(-c2ccc([N+](=O)[O-])cc2)[nH]n1-c1ccccc1 [PHPS1],IC50 (log10 M),[1],> -5
same,IC50 (log10 M),[2],> -5
same,IC50 (log10 M),[3],> -5
same,IC50 (log10 M),[4],> -5
same,IC50 (log10 M),[5],> -5
same,IC50 (log10 M),[6],> -5
same,IC50 (log10 M),[7],> -5
same,IC50 (log10 M),[8],> -5
same,IC50 (log10 M),[9],> -5
same,IC50 (log10 M),[10],> -5
Nc1ncnc2c1c(I)cn2[C@@H]1O[C@H](CO)[C@@H](O)[C@H]1O [5-Iodotubercidin],IC50 (log10 M),[1],-6.69
same,IC50 (log10 M),[2],-5.94
same,IC50 (log10 M),[3],-6.1
same,IC50 (log10 M),[4],-5.89
same,IC50 (log10 M),[5],-5.99
same,IC50 (log10 M),[6],-5.86
same,IC50 (log10 M),[7],-5.95
same,IC50 (log10 M),[8],-6.88
same,IC50 (log10 M),[9],-5.95
same,IC50 (log10 M),[10],-6.38
CCCC(CCC)C(=O)O [Valproic acid],IC50 (log10 M),[1],> -5
same,IC50 (log10 M),[2],> -5
same,IC50 (log10 M),[3],> -5
same,IC50 (log10 M),[4],> -5
same,IC50 (log10 M),[5],> -5
same,IC50 (log10 M),[6],> -5
same,IC50 (log10 M),[7],> -5
same,IC50 (log10 M),[8],> -5
same,IC50 (log10 M),[9],> -5
same,IC50 (log10 M),[10],> -5
CO[C@@H]1[C@H](N(C)C(=O)c2ccccc2)C[C@H]2O[C@]1(C)n1c3ccccc3c3c4c(c5c6ccccc6n2c5c31)C(=O)NC4 [PKC412],IC50 (log10 M),[1],-7.53
same,IC50 (log10 M),[2],-6.66
same,IC50 (log10 M),[3],-6.37
same,IC50 (log10 M),[4],-6.19
same,IC50 (log10 M),[5],-5.89
same,IC50 (log10 M),[6],-5.66
same,IC50 (log10 M),[7],-6.09
same,IC50 (log10 M),[8],-6.92
same,IC50 (log10 M),[9],-5.83
same,IC50 (log10 M),[10],-6.75
CCC1=C[C@@H]2CN(C1)Cc1c([nH]c3ccccc13)[C@@](C(=O)OC)(c1cc3c(cc1OC)N(C)[C@H]1[C@@](O)(C(=O)OC)[C@H](OC(C)=O)[C@]4(CC)C=CCN5CC[C@]31[C@@H]54)C2 [Vinorelbine tartrate],IC50 (log10 M),[1],-7.99
same,IC50 (log10 M),[2],-7.68
same,IC50 (log10 M),[3],-7.98
same,IC50 (log10 M),[4],< -8.34
same,IC50 (log10 M),[5],-7.84
same,IC50 (log10 M),[6],-7.72
same,IC50 (log10 M),[7],-8
same,IC50 (log10 M),[8],-7.87
same,IC50 (log10 M),[9],-8.06
same,IC50 (log10 M),[10],-7.11
CCCS(=O)(=O)Nc1ccc(F)c(C(=O)c2c[nH]c3ncc(Cl)cc23)c1F [PLX-4720],IC50 (log10 M),[1],> -5
same,IC50 (log10 M),[2],> -5
same,IC50 (log10 M),[3],> -5
same,IC50 (log10 M),[4],> -5
same,IC50 (log10 M),[5],-5.33
same,IC50 (log10 M),[6],> -5
same,IC50 (log10 M),[7],> -5
same,IC50 (log10 M),[8],-5.42
same,IC50 (log10 M),[9],> -5
same,IC50 (log10 M),[10],> -5
COc1cc2/c(=N/c3ccc(Br)cc3F)nc[nH]c2cc1OCC1CCN(C)CC1 [Vandetanib],IC50 (log10 M),[1],> -5
same,IC50 (log10 M),[2],> -5
same,IC50 (log10 M),[3],-5.19
same,IC50 (log10 M),[4],> -5
same,IC50 (log10 M),[5],> -5
same,IC50 (log10 M),[6],> -5
same,IC50 (log10 M),[7],> -5
same,IC50 (log10 M),[8],> -5
same,IC50 (log10 M),[9],> -5
same,IC50 (log10 M),[10],-5.41
Cc1cc(C(C)Nc2ccccc2)c2nc(N3CCOCC3)cc(=O)n2c1 (stereo not given) [TGX-221],IC50 (log10 M),[1],> -5
same,IC50 (log10 M),[2],> -5
same,IC50 (log10 M),[3],> -5
same,IC50 (log10 M),[4],> -5
same,IC50 (log10 M),[5],> -5
same,IC50 (log10 M),[6],> -5
same,IC50 (log10 M),[7],> -5
same,IC50 (log10 M),[8],> -5
same,IC50 (log10 M),[9],> -5
same,IC50 (log10 M),[10],> -5
Cc1ccc(Nc2nccc(N(C)c3ccc4c(C)n(C)nc4c3)n2)cc1S(N)(=O)=O [Pazopanib],IC50 (log10 M),[1],> -5
same,IC50 (log10 M),[2],> -5
same,IC50 (log10 M),[3],> -5
same,IC50 (log10 M),[4],> -5
same,IC50 (log10 M),[5],> -5
same,IC50 (log10 M),[6],> -5
same,IC50 (log10 M),[7],> -5
same,IC50 (log10 M),[8],> -5
same,IC50 (log10 M),[9],> -5
same,IC50 (log10 M),[10],> -5
CC(C)(C)c1ccc(S(=O)(=O)/C=C/C#N)cc1 [BAY 11-7085],IC50 (log10 M),[1],-6.13
same,IC50 (log10 M),[2],-6
same,IC50 (log10 M),[3],-6.75
same,IC50 (log10 M),[4],-5.98
same,IC50 (log10 M),[5],-6.48
same,IC50 (log10 M),[6],-6.04
same,IC50 (log10 M),[7],-6.75
same,IC50 (log10 M),[8],-6.25
same,IC50 (log10 M),[9],-6.03
same,IC50 (log10 M),[10],-6.46
